Assays:
[1] = system: PR8 H1N1 infected MDCK cells; assay type: cell-based
[2] = system: Madin-Darby canine kidney (MDCK) cells

Cc1ccccc1/C=N\NC(=O)c1ccc(O)c(O)c1 [compound 7]
antiviral activity (in words) [1]: lacking cytotoxicity and antiviral activity | cytotoxicity (in words) [2]: lacking cytotoxicity

COc1ccccc1N1CCN(/N=C/c2ccc(O)c(O)c2)CC1 [compound 8]
cytotoxicity (in words) [2]: cytotoxic

C/C(=N/NC(=O)c1ccc(O)c(O)c1)c1ccc(C)cc1 [compound 9]
antiviral activity (in words) [1]: lacks antiviral activity | cytotoxicity (in words) [2]: lacks antiviral activity and cytotoxicity

O=C(N/N=C\c1cccc(Cl)c1Cl)c1ccc(O)c(O)c1 [compound 6]
cytotoxicity (in words) [2]: cytotoxic

O=C1CC2(CCCCC2)Oc2c1ccc(O)c2O [compound 11]
antiviral activity (in words) [1]: lack cytotoxicity and antiviral activity | cytotoxicity (in words) [2]: lack cytotoxicity

CC(=O)N1CCC2(CC1)CC(=O)c1ccc(O)c(O)c1O2 [compound 12]
antiviral activity (in words) [1]: lack cytotoxicity and antiviral activity | cytotoxicity (in words) [2]: lack cytotoxicity

O=C(Cc1ccccc1Cl)c1ccc(O)c(O)c1O [compound 14]
antiviral activity (in words) [1]: neither cytotoxic nor active against virally infected cells | cytotoxicity (in words) [2]: neither cytotoxic
